The text below walks through data of patent US9930893B2, “Inhibitors of DXP synthase and methods of use thereof” (The Johns Hopkins University, priority 2014, dated 2018).

Assay [1] relates to ΔtolC variant of E. coli BW25113. As to the kind of experiment: Antimicrobial activity against ΔtolC variant grown in CAMHB. The assay is classed as cell-based. Conditions: 0.63 to 5 mM, 16 hour. Here is the method:
(§1) Standardized innocula of E. coli BW25113 (approximately ˜10^5 CFU mL^−1) were treated with varying concentrations of either MAP (blue) or EAP (orange) from 0.63 to 5 mM for 16 hours, and fractional growth was determined by comparison to a no drug control. The ΔtolC variant of BW25113 was also treated with varying concentrations of MAP (black) or EAP (green) from 0.63 to 5 mM for 16 hour, and fractional growth was determined by comparison to no drug controls. Experiments were performed in duplicate, and error bars represent standard deviation.

Assay [2] deals with E. coli BW25113. In words: Antimicrobial activity against E. coli BW25113 grown in CAMHB. The assay is classed as cell-based. Conditions: 0.63 to 5 mM, 16 hours. How it is done: FIG. 9 is a chart showing antimicrobial activity of acetylphosphonates against E. coli BW25113 grown in CAMHB. Standardized cell cultures (approximately ˜10^5 CFU mL^−1) were exposed to increasing concentrations of acetylphosphonate. Fractional growth was determined at 16 hours as a percentage of the growth of no drug control. BAP (●), PentAP (▪) and HexAP (▴) were varied from 0.31 to 5 mM. OctAP (▾) was varied from 0.63 to 5 mM, and BnAP (♦) was varied from 0.16 mM to 5 mM. Each data point is the average of 3 independent experiments and the error bars are standard error.
as §1

Assay [3] concerns E. coli K-12 (BW25113). In words: Antimicrobial activity against E. coli K-12 grown in M9 minimal medium. The settings on record: Escherichia coli, BW25113. The assay is classed as cell-based. An excerpt: The product of DXP synthase, DXP, lies at a metabolic branchpoint. DXP serves as precursor not only for essential isoprenoids, but also is essential to central metabolism as a precursor to both thiamin diphosphate and pyridoxal phosphate. Thus, evaluation of antimicrobial activity of DXP synthase inhibitors in the standard, rich growth medium (CAMHB) which contains rescuing metabolites, likely underestimates the antimicrobial activities of these agents. Standard in vitro culture conditions may have poor predictive value for these agents in vivo; access to most nutrients is thought to be more difficult from the host than in nutrient rich media.

The subject of assay [4] is wild-type K-12 E. coli (ATCC: MG1655). As to the kind of experiment: Antimicrobial activity against E. coli K-12 grown in CAMHB. It counts as cell-based. How it is done:
FIG. 7A and FIG. 7B are charts showing representative growth curves are shown for BAP (FIG. 7A) and BnAP (FIG. 7B). Alkylacetylphosphonates exert dose-dependent delay in E. coli K-12 (MG 1655) growth in CAMHB. Fractional growth (measured at 16 h, blue arrow) was determined relative to the no drug control. Standardized cell cultures were exposed to increasing concentrations of acetylphosphonate, and growth was determined by measuring the OD600 for a period of 16 hours. Acetylphosphonate concentration was varied from 0-5 mM: No drug (light blue), 0.08 mM (orange), 0.16 mM (gray), 0.31 mM (yellow), 0.63 mM (blue), 1.25 mM (green), 2.5 mM (dark blue) and 5.0 mM (brown).
Thus, BnAP, PentAP, HexAP and OctAP, also shown to inhibit DXP synthase, were evaluated for antimicrobial activity against wild-type K-12 E. coli (ATCC: MG1655) grown in rich medium (CAMHB).

For assay [5], the target named is T1, E. coli DXP synthase (Escherichia coli, UniProt P77488).
T1 construct: made in house
In words: biochemical. The settings on record: competitive with respect to pyruvate. Here is the method:
FIG. 4A, FIG. 4B, and FIG. 4C are charts showing competitive inhibition of DXP synthase by pentylacetylphosphonate (PentAP; FIG. 4A), hexylacetylphosphonate (HexAP; FIG. 4B), and octylacetyl phosphonate (OctAP; FIG. 4C). Inhibition assays were performed as previously described^[18], [40]). […] Pyruvate concentration was varied from 12-240 μM and acetylphosphonate concentration was varied: 0 μM (∘), 10 μM (●), 25 μM (□) and 50 μM (▪). Experiments were performed in triplicate, and data were subjected to non-linear regression analysis for Ki determinations (GraphPad Prism). Representative Lineweaver-Burk plots (GraFit from Erithacus Software) are shown for PentAP (FIG. 4A), HexAP (FIG. 4B) and OctAP (FIG. 4C) to illustrate the competitive inhibition mode with respect to pyruvate.
Inhibition of DXP synthase was measured as previously described^[13], [18]. […] Acetylphosphonate concentration was varied from 0 to 250 μM. […] Experiments were performed in triplicate for BAP and in duplicate for iPrAP
In order to evaluate the inhibitory activity of BnAP against DXP synthase, a continuous spectrophotometric coupled assay was used to measure formation of DXP by monitoring IspC consumption of NADPH (340 nm). ^[2] DXP synthase reaction mixtures (previously described) including BnAP (15, 30, and 60 μM), IspC (1 μM) and NADPH (100 μM) were pre-incubated at 37° C. for 5 minutes. Initial rates were measured after the reaction was initiated by the addition of DXP synthase. Inhibition of the coupling enzyme (IspC) by BnAP was not observed up to 1.5 mM. Experiments were performed in triplicate. Double reciprocal analysis of data was carried out using GraFit version 7 from Erithacus Software.

Assay [6] concerns the target T2, Porcine pyruvate dehydrogenase (PDH E1 subunit) (Sus scrofa, UniProt P29804).
T2 construct: Ki^PDH; μM); Ki^PDH
T2 sequence (P29804 1-390): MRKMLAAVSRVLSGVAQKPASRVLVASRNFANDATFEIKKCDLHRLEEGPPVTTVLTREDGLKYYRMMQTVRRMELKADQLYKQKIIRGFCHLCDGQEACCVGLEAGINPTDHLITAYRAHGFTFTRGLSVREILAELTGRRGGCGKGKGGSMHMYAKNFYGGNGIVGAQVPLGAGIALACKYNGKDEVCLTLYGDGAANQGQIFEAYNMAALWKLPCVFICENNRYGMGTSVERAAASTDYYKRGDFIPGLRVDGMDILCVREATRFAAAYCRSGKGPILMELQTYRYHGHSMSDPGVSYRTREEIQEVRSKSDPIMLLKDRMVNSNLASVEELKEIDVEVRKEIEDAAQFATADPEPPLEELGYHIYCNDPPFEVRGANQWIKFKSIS
As to the kind of experiment: Inhibition of PDH by acetylphosphonates. Conditions: Table 5 (no unit in table; μM). It counts as biochemical. How it is done:
FIG. 6A, FIG. 6B, and FIG. 6C are charts showing Competitive inhibition of procine PDH E1 subunit by PentAP (FIG. 6A), HexAP (FIG. 6B) and OctAP (FIG. 6C). Inhibition assays were performed as previously described^[18]. Pyruvate concentration was varied from 12.5-250 μM and acetylphosphonate concentration was varied: 0 μM (∘), 250 μM (PentAP) or 200 μM (HexAP and OctAP) (●), 500 μM (□) and 1000 μM (▪). Experiments were performed in triplicate, and data were subjected to non-linear regression analysis for Ki determinations (GraphPad Prism). Representative Lineweaver-Burk plots (GraFit from Erithacus Software) are shown for PentAP (FIG. 6A), HexAP (FIG. 6B) and OctAP (FIG. […]) to illustrate the competitive inhibition mode with respect to pyruvate.
Pyruvate dehydrogenase activity was measured spectrophotometrically as previously reported ^[38] by monitoring absorbance changes at 340 nm due to reduction of NAD^+ by PDH. Reaction mixtures contained 100 mM HEPES (pH 8.0), 1 mg/mL BSA, 0.2 mM ThDP, 0.1 mM coenzyme A, 1 mM MgCl2, 2 mM cysteine, 0.3 mM tris(2-carboxyethyl)phosphine (TCEP). The reaction was initiated with enzyme (0.01 units/ml) and activity was monitored at 30° C. For inhibition studies, reaction mixtures (described above) including BnAP (0.5, 1, 2.25 mM) were pre-incubated at 30° C. for 5 minutes. Initial rates were measured immediately after reactions were initiated by addition of PDH (0.01 units/ml). Double reciprocal analysis of data was carried out using GraFit version 7 from Erithacus Software.

Molecules are shown by their SMILES. Values after ≈ are worked out from the molar mass of the structure shown. Values joined by “and” are separate entries in the source; they are usually repeats but may differ in a detail not shown here. Equal values may be shown once. Read-outs that look alike come from different tables or passages of the source.

T1 sequence (P77488 whole entry): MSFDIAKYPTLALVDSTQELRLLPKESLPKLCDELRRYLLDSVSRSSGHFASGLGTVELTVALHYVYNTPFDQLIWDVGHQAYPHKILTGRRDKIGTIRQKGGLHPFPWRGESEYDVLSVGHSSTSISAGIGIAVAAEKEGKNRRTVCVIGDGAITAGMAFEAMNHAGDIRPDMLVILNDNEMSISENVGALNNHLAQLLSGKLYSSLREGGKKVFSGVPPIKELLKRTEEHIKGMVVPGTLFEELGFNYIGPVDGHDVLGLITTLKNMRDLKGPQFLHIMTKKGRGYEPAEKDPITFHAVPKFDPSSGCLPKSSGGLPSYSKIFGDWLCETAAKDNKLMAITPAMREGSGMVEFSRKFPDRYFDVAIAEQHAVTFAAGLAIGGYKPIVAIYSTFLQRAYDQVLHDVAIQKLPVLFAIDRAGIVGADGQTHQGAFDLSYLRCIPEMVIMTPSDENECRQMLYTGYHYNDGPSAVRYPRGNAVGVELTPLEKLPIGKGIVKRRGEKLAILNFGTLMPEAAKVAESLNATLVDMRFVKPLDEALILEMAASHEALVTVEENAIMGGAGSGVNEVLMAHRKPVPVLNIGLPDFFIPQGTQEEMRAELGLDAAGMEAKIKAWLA

In the case of `CCOP(=O)(O)C(C)=O` [EAP, ethyl acetylphosphonate], in assay [1], the “activity against ΔtolC variant” value was “inactive”. Further, the “activity against E. coli BW25113” value in assay [2] is “inactive”.
Turning to `COP(=O)(O)C(C)=O` [MAP, methyl acetylphosphonate], the “activity against ΔtolC variant” value in assay [1] is “inactive”. Moreover, the “activity against E. coli BW25113” value in assay [2] was “inactive”.
Regarding `CCCCCCCCOP(=O)(O)C(C)=O` [OctAP, Octylacetylphosphonate], the minimal inhibitory concentration (MIC) in assay [3] (M9 minimal medium, preliminary, read-out: MIC) stood at 1250 µM (≈ 295 µg/mL). For the same compound, the “antimicrobial effects against E. coli (MG1655)” value in assay [4] (FIG. 10, in words) is “inactive”. In addition, in assay [4] (rich medium (CAMHB)), the “inactive up to” value is > 5 mM and > 1210 ug/mL. In addition, the values for the Ki in assay [5] (read-out: Ki (DXP synthase)) and in assay [6] (read-out: Ki^PDH) were 6 ± 0.2 µM and 154 ± 14 µM, respectively.
In assay [3], `CCCCCOP(=O)(O)C(C)=O` [PentAP, Pentylacetylphosphonate] gave an MIC of 12500 µM (≈ 2430 µg/mL). The MIC90 in assay [4] (Escherichia coli, MG1655, 16 h, read-out: minimum inhibitory concentration (MIC90)) worked out at 1250 µM (≈ 243 µg/mL). The Ki in assay [5] (Ki (DXP synthase)) stood at 9.9 ± 0.4 µM; in assay [6] (Ki^PDH) it was 250 ± 31 µM.
